Test results from ChEMBL document CHEMBL1122221, “Antimycotic azoles. 6. Synthesis and antifungal properties of terconazole, a novel triazole ketal” (1983).

Legend:
Microsporum canis [1] = assay: Concentration for complete inhibition of growth of Microsporum canis in Sabouraud broth with 10% inactive bovine serum; type: functional, organism-based
Cryptococcus neoformans [2] = assay: Concentration for marked inhibition of growth of Cryptococcus neoformans in Sabouraud broth with 10% inactive bovine serum; type: functional, organism-based
Sporothrix schenckii [3] = assay: Concentration for marked inhibition of growth of Sporothrix schenck ii in Sabouraud broth with 10% inactive bovine serum; type: functional, organism-based
Phialophora verrucosa [4] = assay: Concentration for complete inhibition of growth of Phialophora verrucosa in Sabouraud broth with 10% inactive bovine serum; type: functional, organism-based
Rattus norvegicus [5] = assay: Evaluated for marked improvement against vaginal candidosis after 3 days of 2 times a day topical treatment with 0.5% of compound in a group of 48 rats; Improved; type: functional
Saprolegnia [6] = assay: Concentration for complete inhibition of growth of Saprolegnia sp. in Sabouraud broth with 10% inactive bovine serum; type: functional, organism-based
Cavia porcellus [7] = assay: Evaluated for cure against microsporosis after 12 days of one time a day topical treatment with 0.5% of compound in a group of 36 guinea pigs; type: functional
Sporothrix schenckii [8] = assay: Concentration for marked inhibition of growth of Sporo thrix schenck ii in Sabouraud broth; type: functional, organism-based
Cryptococcus neoformans [9] = assay: Concentration for complete inhibition of growth of Cryptococcus neoformans in Sabouraud broth with 10% inactive bovine serum; type: functional, organism-based
Aspergillus fumigatus [10] = assay: Concentration for complete inhibition of growth of Aspergillus fumigatus; type: functional, organism-based
Aspergillus fumigatus [11] = assay: Concentration for marked inhibition of growth of Aspergillus fumigatus in Sabouraud broth with 10% inactive bovine serum; type: functional, organism-based
Mucor [12] = assay: Concentration for complete inhibition of growth of Mucor sp.; type: functional
Cavia porcellus [13] = assay: Evaluated for cure against trichophytosis after 12 days of one time a day topical treatment with 0.5% of compound in a group of 20 guinea pigs; type: functional
Mucor [14] = assay: Concentration for complete inhibition of growth of Mucor sp. in Sabouraud broth with 10% inactive bovine serum; type: functional
Trichophyton rubrum [15] = assay: Concentration for complete inhibition of growth of Trichophyton rubrum; type: functional, organism-based
Candida tropicalis [16] = assay: Concentration for marked inhibition of growth of Candida tropicalis in Sabouraud broth; type: functional, organism-based
Microsporum canis [17] = assay: Concentration for complete inhibition of growth of Microsporum canis; type: functional, organism-based
Saprolegnia [18] = assay: Concentration for marked inhibition of growth of Saprolegnia sp. in Sabouraud broth; type: functional, organism-based
Trichophyton rubrum [19] = assay: Concentration for complete inhibition of growth of Trichophyton rubrum in Sabouraud broth with 10% inactive bovine serum; type: functional, organism-based
Mucor [20] = assay: Concentration for marked inhibition of growth of Mucor sp. in Sabouraud broth with 10% inactive bovine serum; type: functional
Rattus norvegicus [21] = assay: Evaluated for cure against vaginal candidosis after 3 days of 2 times a day topical treatment with 0.5% of compound in a group of 48 rats; type: functional
Candida albicans [22] = assay: Concentration for marked inhibition of growth of Candida albicans in Sabouraud broth; type: functional, organism-based
Aspergillus fumigatus [23] = assay: Concentration for complete inhibition of growth of Aspergillus fumigatus in Sabouraud broth with 10% inactive bovine serum; type: functional, organism-based
Mucor [24] = assay: Concentration for marked inhibition of growth of Mucor sp. in Sabouraud broth; type: functional
Aspergillus fumigatus [25] = assay: Concentration for marked inhibition of growth of Aspergillus fumigatus in Sabouraud broth; type: functional, organism-based
Phialophora verrucosa [26] = assay: Concentration for marked inhibition of growth of Phialophora verrucosa in Sabouraud broth; type: functional, organism-based
Saprolegnia [27] = assay: Concentration for complete inhibition of growth of Saprolegnia sp.; type: functional, organism-based
Candida albicans [28] = assay: Concentration for complete inhibition of growth of Candida albicans in Sabouraud broth with 10% inactive bovine serum; type: functional, organism-based
Phialophora verrucosa [29] = assay: Concentration for complete inhibition of growth of Phialophora verrucosa; type: functional, organism-based
Candida tropicalis [30] = assay: Concentration for complete inhibition of growth of Candida tropicalis; type: functional, organism-based
Trichophyton benhamiae [31] = assay: Concentration for complete inhibition of growth of Trichophyton mentagrophytes in Sabouraud broth with 10% inactive bovine serum; type: functional, organism-based; details: Arthroderma benhamiae
Sporothrix schenckii [32] = assay: Concentration for complete inhibition of growth of Sporothrix schenck ii; type: functional, organism-based
Trichophyton rubrum [33] = assay: Concentration for marked inhibition of growth of Trichophyton rubrum in Sabouraud broth with 10% inactive bovine serum; type: functional, organism-based
Candida albicans [34] = assay: Concentration for complete inhibition of growth of Candida albicans; type: functional, organism-based
Cryptococcus neoformans [35] = assay: Concentration for complete inhibition of growth of Cryptococcus neoformans; type: functional, organism-based
Cryptococcus neoformans [36] = assay: Concentration for marked inhibition of growth of Cryptococcus neoformans in Sabouraud broth; type: functional, organism-based
Cavia porcellus [37] = assay: Evaluated for marked improvement against microsporosis after 12 days of one time a day topical treatment with 0.5% of compound in a group of 36 guinea pigs; Improved; type: functional
Candida albicans [38] = assay: Concentration for marked inhibition of growth of Candida albicans in Sabouraud broth with 10% inactive bovine serum; type: functional, organism-based
Saprolegnia [39] = assay: Concentration for marked inhibition of growth of Saprolegnia sp. in Sabouraud broth with 10% inactive bovine serum; type: functional, organism-based
Microsporum canis [40] = assay: Concentration for marked inhibition of growth of Microsporum canis in Sabouraud broth; type: functional, organism-based
Candida tropicalis [41] = assay: Concentration for complete inhibition of growth of Candida tropicalis in Sabouraud broth with 10% inactive bovine serum; type: functional, organism-based
Trichophyton benhamiae [42] = assay: Concentration for complete inhibition of growth of Trichophyton mentagrophytes; type: functional, organism-based; details: Arthroderma benhamiae
Phialophora verrucosa [43] = assay: Concentration for marked inhibition of growth of Phialophora verrucosa in Sabouraud broth with 10% inactive bovine serum; type: functional, organism-based
Microsporum canis [44] = assay: Concentration for marked inhibition of growth of Microsporum canis in Sabouraud broth with 10% inactive bovine serum; type: functional, organism-based
Cavia porcellus [45] = assay: Evaluated for marked improvement against trichophytosis after 12 days of one time a day topical treatment with 0.5% of compound in a group of 20 guinea pigs; Improved; type: functional
Trichophyton benhamiae [46] = assay: Concentration for marked inhibition of growth of Trichophyton mentagrophytes in Sabouraud broth; type: functional, organism-based; details: Arthroderma benhamiae
Trichophyton rubrum [47] = assay: Concentration for marked inhibition of growth of Trichophyton rubrum in Sabouraud broth; type: functional, organism-based
Trichophyton benhamiae [48] = assay: Concentration for marked inhibition of growth of Trichophyton mentagrophytes in Sabouraud broth with 10% inactive bovine serum; type: functional, organism-based; details: Arthroderma benhamiae
Candida tropicalis [49] = assay: Concentration for marked inhibition of growth of Candida tropicalis in Sabouraud broth with 10% inactive bovine serum; type: functional, organism-based
Sporothrix schenckii [50] = assay: Concentration for complete inhibition of growth of Sporothrix schenck ii in Sabouraud broth with 10% inactive bovine serum; type: functional, organism-based
Sporothrix schenckii [51] = assay: Concentration for complete inhibition of growth of Sporo thrix schenck ii; type: functional, organism-based
Rattus norvegicus [52] = assay: Evaluated for marked improvement against vaginal candidosis after topical treatment with 0.5% of compound in a group of 10 rats; type: functional
Cryptococcus neoformans [53] = assay: Concentration for complete inhibition of growth of Cryptococcus neo formans; type: functional, organism-based
Rattus norvegicus [54] = assay: Evaluated for cure against vaginal candidosis after topical treatment with 1% of compound in a group of 10 rats; type: functional
Phialophora verrucosa [55] = assay: Concentration for complete inhibition of growth of Phialophora uerrucosa; type: functional, organism-based
Cavia porcellus [56] = assay: Evaluated for cure against trichophytosis after topical treatment with 1% of compound in a group of 6 guinea pigs; type: functional
Cavia porcellus [57] = assay: Evaluated for cure against microsporosis after topical treatment with 1% of compound in a group of 8 guinea pigs; type: functional
Cavia porcellus [58] = assay: Evaluated for marked improvement against microsporosis after topical treatment with 0.5% of compound in a group of 8 guinea pigs; type: functional
Cavia porcellus [59] = assay: Evaluated for marked improvement against trichophytosis after topical treatment with 0.5% of compound in a group of 6 guinea pigs; type: functional

For CC(C)N1CCN(c2ccc(OCC3COC(Cn4cncn4)(c4ccc(Cl)cc4Cl)O3)cc2)CC1 (configuration not stated) [TERCONAZOLE], the Concentration (Microsporum canis [1]) was 100 µg/mL, the Concentration (Cryptococcus neoformans [2]) was 0.1 µg/mL and the Concentration (Sporothrix schenckii [3]) was 1 µg/mL. For the same compound, the Concentration (Phialophora verrucosa [4]) was 10 µg/mL, the Activity (Rattus norvegicus [5]) was 2 and the Concentration (Saprolegnia [6]) was 10 µg/mL. For the same compound, the Cure (Cavia porcellus [7]) was 19, the Concentration (Sporothrix schenckii [8]) was 100 µg/mL and the Concentration (Cryptococcus neoformans [9]) was 1 µg/mL. For the same compound, the Concentration (Aspergillus fumigatus [10]) was greater than 100 µg/mL, the Concentration (Aspergillus fumigatus [11]) was 100 µg/mL and the Concentration (Mucor [12]) was greater than 100 µg/mL. It also gave a Cure (Cavia porcellus [13]) of 20, a Concentration (Mucor [14]) of 100 µg/mL and a Concentration (Trichophyton rubrum [15]) of 100 µg/mL. For the same compound, the Concentration (Candida tropicalis [16]) was 1 µg/mL, the Concentration (Microsporum canis [17]) was 100 µg/mL and the Concentration (Saprolegnia [18]) was 10 µg/mL. For the same compound, the Concentration (Trichophyton rubrum [19]) was 10 µg/mL, the Concentration (Mucor [20]) was 100 µg/mL and the Cure (Rattus norvegicus [21]) was 35. It also gave a Concentration (Candida albicans [22]) of 10 µg/mL, a Concentration (Aspergillus fumigatus [23]) greater than 100 µg/mL and a Concentration (Mucor [24]) greater than 100 µg/mL. The Concentration (Aspergillus fumigatus [25]) was greater than 100 µg/mL, the Concentration (Phialophora verrucosa [26]) was 10 µg/mL and the Concentration (Saprolegnia [27]) was 100 µg/mL. For the same compound, the Concentration (Candida albicans [28]) was 100 µg/mL, the Concentration (Phialophora verrucosa [29]) was 100 µg/mL and the Concentration (Candida tropicalis [30]) was 10 µg/mL. It also gave a Concentration (Trichophyton benhamiae [31]) of 1 µg/mL, a Concentration (Sporothrix schenckii [32]) of 100 µg/mL and a Concentration (Trichophyton rubrum [33]) of 1 µg/mL. For the same compound, the Concentration (Candida albicans [34]) was greater than 100 µg/mL, the Concentration (Cryptococcus neoformans [35]) was 10 µg/mL and the Concentration (Cryptococcus neoformans [36]) was 1 µg/mL. For the same compound, the Activity (Cavia porcellus [37]) was 17, the Concentration (Candida albicans [38]) was 0.1 µg/mL and the Concentration (Saprolegnia [39]) was 1 µg/mL. The Concentration (Microsporum canis [40]) was 100 µg/mL, the Concentration (Candida tropicalis [41]) was 1 µg/mL and the Concentration (Trichophyton benhamiae [42]) was 1 µg/mL. The Concentration (Phialophora verrucosa [43]) was 1 µg/mL, the Concentration (Microsporum canis [44]) was 10 µg/mL and the Activity (Cavia porcellus [45]) was 0. The Concentration (Trichophyton benhamiae [46]) was 1 µg/mL, the Concentration (Trichophyton rubrum [47]) was 10 µg/mL and the Concentration (Trichophyton benhamiae [48]) was 0.1 µg/mL. The Concentration (Candida tropicalis [49]) was 0.1 µg/mL and the Concentration (Sporothrix schenckii [50]) was 100 µg/mL.

With Clc1ccccc1C(c1ccccc1)(c1ccccc1)n1ccnc1 [CLOTRIMAZOLE] the Concentration (Aspergillus fumigatus [10]) was 100 µg/mL, the Concentration (Mucor [12]) was greater than 100 µg/mL and the Concentration (Trichophyton rubrum [15]) was less than 1 µg/mL. For the same compound, the Concentration (Microsporum canis [17]) was less than 1 µg/mL, the Concentration (Sporothrix schenckii [51]) was greater than 100 µg/mL and the Improved (Rattus norvegicus [52]) was 2. For the same compound, the Concentration (Cryptococcus neoformans [53]) was greater than 100 µg/mL, the Cure (Rattus norvegicus [54]) was 2 and the Concentration (Phialophora verrucosa [55]) was greater than 100 µg/mL. For the same compound, the Cure (Cavia porcellus [56]) was 3, the Concentration (Saprolegnia [27]) was greater than 100 µg/mL and the Concentration (Candida tropicalis [30]) was greater than 100 µg/mL. It also gave a Concentration (Candida albicans [34]) greater than 100 µg/mL, a Cure (Cavia porcellus [57]) of 4 and an Improved (Cavia porcellus [58]) of 1. For the same compound, the Concentration (Trichophyton benhamiae [42]) was less than 1 µg/mL and the Improved (Cavia porcellus [59]) was 1.
